{
  "source": "ChEMBL document CHEMBL1122435",
  "about": "“Pyrrolopyrimidine nucleosides. 18. Synthesis and chemotherapeutic activity of 4-amino-7-(3-deoxy-beta-D-ribofuranosyl)pyrrolo[2,3-d] pyrimidine-5-carboxamide (3'-deoxysangivamycin) and 4-amino-7-(2-deoxy-beta-D-ribofuranosyl)pyrrolo[2,3-d] pyrimidine-5-carboxamide (2'-deoxysangivamycin)” (1983)",
  "key": {"L1210 [1]": {"system": "L1210", "assay": "Increase in life span for drug treated L1210-bearing mice at the dose of 160 mg/kg upon intraperitoneal administration", "type": "functional", "settings": "Mus musculus, L1210, ip"}, "L1210 [2]": {"system": "L1210", "assay": "Occurrence of drug-induced shortening of life span resulting from treatment at 100 mg/kg dose in L1210-bearing mice; y=yes", "type": "functional, organism-based", "design": "dose 100 mg/kg", "settings": "Mus musculus"}, "L1210 [3]": {"system": "L1210", "assay": "Increase in life span for drug treated L1210-bearing mice at the dose of 100 mg/kg upon intraperitoneal administration", "type": "functional", "settings": "Mus musculus, L1210, ip"}, "L1210 [4]": {"system": "L1210", "assay": "Increase in life span for drug treated L1210-bearing mice at the dose of 128 mg/kg upon intraperitoneal administration", "type": "functional", "settings": "Mus musculus, L1210, ip"}, "L1210 [5]": {"system": "L1210", "assay": "Increase in life span for drug treated L1210-bearing mice at the dose of 0.25 mg/kg upon intraperitoneal administration", "type": "functional", "settings": "Mus musculus, L1210, ip"}, "L1210 [6]": {"system": "L1210", "assay": "Occurrence of drug-induced shortening of life span resulting from treatment at 0.25 mg/kg dose in L1210-bearing mice; y=yes", "type": "functional, organism-based", "design": "dose 0.25 mg/kg", "settings": "Mus musculus"}},
  "data": [
    {"smiles": "NC(=O)c1cn([C@H]2C[C@H](O)[C@@H](CO)O2)c2ncnc(N)c12", "values": [
      {"measurement": "ILS at 160 mg/kg", "setting": "L1210 [1]", "value": 4, "unit": "%"}
    ]},
    {"smiles": "C[C@H]1OC(n2cc(C(N)=O)c3c(N)ncnc32)[C@H](O)[C@@H]1O", "note": "(stereo partly specified)", "values": [
      {"measurement": "Toxicity", "setting": "L1210 [2]", "value": "Yes"},
      {"measurement": "ILS at 100 mg/kg", "setting": "L1210 [3]", "value": 5, "unit": "%"}
    ]},
    {"smiles": "NC(=O)c1cn(C2OC(CO)CC2O)c2ncnc(N)c12", "note": "(stereo unspecified)", "values": [
      {"measurement": "ILS at 128 mg/kg", "setting": "L1210 [4]", "value": 128, "unit": "%"}
    ]},
    {"smiles": "NC(=O)c1cn([C@@H]2O[C@H](CO)[C@@H](O)[C@H]2O)c2ncnc(N)c12", "note": "[SANGIVAMYCIN]", "values": [
      {"measurement": "ILS at 0.25 mg/kg", "setting": "L1210 [5]", "value": 37, "unit": "%"},
      {"measurement": "Toxicity", "setting": "L1210 [6]", "value": "Yes"}
    ]}
  ]
}
